Assay results published in patent publication US20230373972A1, “PIPERAZINE DERIVATIVE, PREPARATION METHOD THEREFOR AND USE THEREOF” (Zhejiang Hisun Pharmaceutical Co., Ltd., priority 2020, published 2023).
Read-outs that look alike come from different tables or passages of the source.

Assays:
human plasma = assay: In-vitro anticoagulation on human plasma (APTT kit, coagulation time); settings: concentration of the compound when the coagulation time (APTT) was prolonged twice
[1] = Pharmacokinetics in SD rat; format: in vivo; settings: male, plasma; for Cmax: read-out: Blood concentration Cmax; for AUC(0-t): read-out: Curve area AUC0-t; for half-life: read-out: Half-life period T1/2(h) (converted); for bioavailability: intragastric 10 mg/kg vs injection 1 mg/kg, read-out: Bioavailability F(%)
Protocol: Taking a SD rat as a test animal, the SD rat was administrated with the compound of the present invention by intravenous injection and/or intragastric administration, and drug concentrations in plasma at different times were determined by a IC/MS/MS method to study pharmacokinetic characteristics of the compound of the present invention in the SD rat.
SD rats, male, 195 g to 235 g, 6 weeks old to 8 weeks old, purchased from Shanghai JieSiJie Laboratory Animal Co., Ltd.
Preparation of drug administrated by intravenous injection: a proper amount of compound to be tested was added to a proper amount of DMAC; (30% Soltol HS 15): Saline=10%: 10%: 80% (v/v/v), and shaken in a vortex manner, so as to prepare a final solution with a concentration of 0.5 mg/mL.
Preparation of drug administrated by intragastric administration: a proper amount of compound to be tested was added to a proper amount of DMAC: (30% Soltol HS 15): Saline=10%: 10%: 80% (v/v/v), and shaken in a vortex manner, so as to prepare a final solution with a concentration of 1 mg/mL.
SD rats were divided into an intravenous injection group of the compound to be tested (3 rats/group) and an intragastric administration group (3 rats/group) of the compound to be tested.
Intravenous injection group: the drug was administrated by dorsalis pedis vein injection (according to a dosage of 1 mg/kg and a volume of 2 mL/kg) without fasting.
Intragastric administration group: the drug was administrated by intragastric administration (according to a dosage of 10 mg/kg and a volume of 10 mL/kg) after fasting overnight, and food was taken 4 hours after administration.
Intravenous injection group: about 150 μL of blood was collected into an EDTA-K2 anticoagulant tube through a jugular vein 0.083 hour, 0.25 hour, 0.5 hour, 1 hour, 2 hours, 4 hours, 8 hours and 24 hours after administration.
Intragastric administration group; about 150 μL of blood was collected into an EDTA-K2 anticoagulant tube through a jugular vein 0.25 how, 0.5 hour, 1 hour, 2 hours, 4 hours, 8 hours and 24 hours after administration.
The blood sample was stored in wet ice first, and plasma was centrifugally separated within 15 minutes after sampling (centrifugation conditions: 2,000 g, 4° C., 5 minutes). The collected upper plasma was stored at −70° C. before analysis.
Contents of the compound to be tested in rat plasma after intravenous injection and intragastric administration were determined by LC-MS/MS.

[2] = molecular target: T1, Native human Factor XIa protease (Homo sapiens, UniProt P03951); assay: Inhibition of activity of Factor XIa protease (chromogenic substrate S-2366); format: biochemical; settings: S-2366 1 mM, 37° C. 10 minutes, absorption at 405 nm
T1 construct: The Native human Factor XIa protease was purchased from Abcam; purchased Abcam ab62411
Description: The following method was used to determine an inhibition degree of the compound of the present invention on an activity of Native human Factor XIa protease in vitro. In the method, a Factor XIa chromogenic substrate was used to test the inhibition degree on the activity of the Factor XIa protease. The Native human Factor XIa protease was purchased from Abcam (article number ab62411), and S-2366 was purchased from Chromogenix (article number 82109039). An experimental process was briefly described as follows: a test compound was dissolved in DMSO to prepare a 10 mM storage solution first, then the compound was diluted with a Factor XIa reaction buffer (100 mM Tris-HCl, 200 mM NaCl, 0.02% Tween 20, pH 7.4) by a quadruple gradient, and a final concentration of the test compound in a reaction system ranged from 10,000 nM to […]. The reaction was carried out in a 384-well microplate. 2 μL of the test compounds at different concentrations diluted with the reaction buffer were added to wells first, and 2 μL of 1% DMSO (a final concentration of DMSO in the reaction system was 0.1%) was used to replace blank and control wells. Subsequently, 8 μL of enzyme working solution (a final concentration of Factor XIa was […]) was added to each well, and 8 μL of Factor XIa reaction buffer was used to replace the blank well, centrifuged for 30 seconds, and incubated on ice for 5 minutes. Finally, 10 μL of substrate working solution (a final concentration of S-2366 was 1 mM) was added to each well, and centrifuged for 30 seconds, and the reaction was started. The solution was incubated at 37° C. for 10 minutes to determine a light absorption value at 405 nm. By comparing with a light absorption value of the control group (0.1% DMSO), a percentage inhibition rate of the compound at each concentration was calculated, and nonlinear regression analysis was carried out on value-inhibition rate with the concentration of the compound by GraphPad Prism 5 software, so as to obtain an IC50 value of the compound, as shown in Table 1.

[3] = po, intragastric administration 10 mg/kg
[4] = iv, injection administration 1 mg/kg

T1 sequence (P03951 388-625 limits assumed): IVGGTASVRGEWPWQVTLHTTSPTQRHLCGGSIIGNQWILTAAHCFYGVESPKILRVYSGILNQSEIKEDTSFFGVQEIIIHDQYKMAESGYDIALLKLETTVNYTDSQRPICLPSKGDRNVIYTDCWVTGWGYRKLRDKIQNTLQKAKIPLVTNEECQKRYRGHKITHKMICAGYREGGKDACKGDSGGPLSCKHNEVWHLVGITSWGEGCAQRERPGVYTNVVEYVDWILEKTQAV
T1 sequence (P03951 19-387 partner limits assumed): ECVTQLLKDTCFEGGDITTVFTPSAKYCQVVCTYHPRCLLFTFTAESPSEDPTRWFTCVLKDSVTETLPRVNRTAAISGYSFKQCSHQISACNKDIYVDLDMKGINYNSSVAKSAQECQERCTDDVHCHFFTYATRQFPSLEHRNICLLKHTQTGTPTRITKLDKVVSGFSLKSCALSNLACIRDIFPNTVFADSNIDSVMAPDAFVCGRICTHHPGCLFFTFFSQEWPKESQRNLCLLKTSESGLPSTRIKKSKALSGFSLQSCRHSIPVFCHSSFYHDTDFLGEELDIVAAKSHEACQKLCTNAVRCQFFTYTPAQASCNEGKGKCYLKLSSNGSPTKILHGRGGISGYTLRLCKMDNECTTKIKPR

Row | Compound | Cmax [1, 3] [ng/mL] | AUC(0-t) [1, 3] [ng·h/mL] | half-life [1, 3] [h] | IC50 [2] [nM] | AUC(0-t) [1, 4] [ng·h/mL] | half-life [1, 4] [h] | bioavailability ([1]; po) [%] | CT2 (human plasma) [µM]
1 | Cn1cc2cc(NC(=O)C(Cc3ccc(F)cc3)N3CC(=O)N(c4cc(Cl)ccc4-n4cc(Cl)nn4)CC3=O)ccc2n1 (stereo in doubt) [Example 99, (R)-2-(4-(5-chloro-2-(4-chloro-1H-1,2,3-triazol-1-yl)phenyl)-2,5-dioxopiperazin-1-yl)-3-(4-fluorophenyl)-N-(2-methyl-2H-indazol-5-yl)propanamide] | 1100 ± 498 | 4850 ± 1570 | 0.994 | 24.4 | 326 ± 61.2 | 0.595 ± 0.222 | 149 ± 48.1 | 6.9
2 | Cn1ccc(C[C@H](C(=O)Nc2ccc3nn(C)cc3c2)N2CC(=O)N(c3cc(Cl)ccc3-n3cc(Cl)nn3)CC2=O)n1 [Example 113, (R)-2-(4-(5-chloro-2-(4-chloro-1H-1,2,3-triazol-1-yl)phenyl)-2,5-dioxopiperazin-1-yl)-3-(1-methyl-1H-pyrazol-3-yl)-N-(2-methyl-2H-indazol-5-yl)propanamide] | 3420 ± 2350 | 3020 ± 2540 | 1.38 ± 0.297 |  | 552 ± 108 | 0.5 ± 0.0254 | 54.7 ± 46 | 
3 | COCCC(C(=O)Nc1ccc2nn(C)cc2c1)N1CC(=O)N(c2cc(Cl)ccc2-n2cc(Cl)nn2)CC1=O (stereo not drawn) [Example 38, 2-(4-(5-Chloro-2-(4-chloro-1H-1,2,3-triazol-1-yl)phenyl)-2,5-dioxopiperazin-1-yl)-4-methoxy-N-(2-methyl-2H-indazol-5-yl)butanamide] | 1360 ± 564 | 3080 ± 281 | 2.63 ± 0.172 | 61.4 |  |  |  | 19.0
4 | O=C(O)c1cccc(NC(=O)C(Cc2ccccc2)N2CC(=O)N(c3cc(Cl)ccc3-n3cnnn3)CC2=O)c1 (stereo not drawn) [Example 9, 3-(2-(4-(5-Chloro-2-(1H-tetrazol-1-yl)phenyl)-2,5-dioxopiperazin-1-yl)-3-phenylpropanamido)benzoic Acid] |  |  |  | 7.8 |  |  |  | 2.9
5 | COc1ccc(CC(C(=O)Nc2ccc3nn(C)cc3c2)N2CC(=O)N(c3cc(Cl)ccc3-n3cc(Cl)nn3)CC2=O)cc1 (stereo not drawn) [Example 108, 2-(4-(5-chloro-2-(4-chloro-1H-1,2,3-triazol-1-yl)phenyl)-2,5-dioxopiperazin-1-yl)-3-(4-methoxyphenyl)-N-(2-methyl-2H-indazol-5-yl)propanamide] |  |  |  | 35.8 |  |  |  | 10.6
6 | Cn1ccc(CC(C(=O)Nc2ccc3nn(C)cc3c2)N2CC(=O)N(c3cc(Cl)ccc3-n3cc(Cl)nn3)CC2=O)n1 (stereo not drawn) [Example 111, 2-(4-(5-chloro-2-(4-chloro-1H-1,2,3-triazol-1-yl)phenyl)-2,5-dioxopiperazin-1-yl)-3-(1-methyl-1H-pyrazol-3-yl)-N-(2-methyl-2H-indazol-5-yl)propanamide] | 1420 ± 703 | 2560 ± 409 | 2.37 ± 1.21 | 45.3 |  |  |  | 19.6
7 | O=C1NCc2cc(NC(=O)C(Cc3ccccc3)N3CC(=O)N(c4cc(Cl)ccc4-n4cnnn4)CC3=O)ccc21 (stereo not drawn) [Example 7, 2-(4-(5-Chloro-2-(1H-tetrazol-1-yl)phenyl)-2,5-dioxopiperazine-1-yl)-N-(1-oxoisoindolin-5-yl)-3-phenylpropanamide] |  |  |  | 15.5 |  |  |  | 9.8
8 | Cn1cc2cc(NC(=O)C(Cc3ccc(C#N)cc3)N3CC(=O)N(c4cc(Cl)ccc4-n4cc(Cl)nn4)CC3=O)ccc2n1 (stereo not drawn) [Example 115, 2-(4-(5-chloro-2-(4-chloro-1H-1,2,3-triazol-1-yl)phenyl)-2,5-dioxopiperazin-1-yl)-3-(4-cyanophenyl)-N-(2-methyl-2H-indazol-5-yl)propanamide] |  |  |  | 46.7 |  |  |  | 11.7

Further lines, with some results ahead:

Row | Cmax [1, 3] [ng/mL] | AUC(0-t) [1, 3] [ng·h/mL] | half-life [1, 3] [h] | IC50 [2] [nM] | AUC(0-t) [1, 4] [ng·h/mL] | half-life [1, 4] [h] | bioavailability ([1]; po) [%] | Compound | CT2 (human plasma) [µM]
9 | 2860 ± 268 | 12200 ± 3190 | 2.13 ± 0.18 | 45.2 |  |  |  | Cn1cc2cc(NC(=O)C(Cc3ccc(F)cc3)N3CC(=O)N(c4cc(Cl)ccc4-n4cc(Cl)nn4)CC3=O)ccc2n1 (stereo not drawn) [Example 47, 2-(4-(5-Chloro-2-(4-chloro-1H-1,2,3-triazol-1-yl)phenyl)-2,5-dioxopiperazin-1-yl)-3-(4-fluorophenyl)-N-(2-methyl-2H-indazol-5-yl)propanamide] | 9.3
10 | 798 ± 868 | 2190 ± 2750 | 1.15 ± 0.0495 | 27.1 |  |  |  | NC(=O)c1ccc(NC(=O)C(Cc2ccccc2)N2CC(=O)N(c3cc(Cl)ccc3-n3cc(Cl)nn3)CC2=O)cc1F (stereo not drawn) [Example 36, 4-(2-(4-(5-chloro-2-(4-chloro-1H-1,2,3-triazol-1-yl)phenyl)-2,5-dioxopiperazin-1-yl)-3-phenylpropanamido)-2-fluorobenzamide] | 15.9
11 | 1390 ± 521 | 3460 ± 1230 | 0.895 ± 0.0751 | 14.8 | 431 ± 117 | 0.818 ± 0.37 | 80.4 ± 28.5 | Cn1cc2cc(NC(=O)C(Cc3ccccc3)N3CC(=O)N(c4cc(Cl)ccc4-n4cc(Cl)nn4)CC3=O)ccc2n1 (stereo not drawn) [Example 25, 2-(4(5-chloro-2-(4-chloro-1H-1,2,3-triazol-1-yl)phenyl)-2,5-dioxopiperazin-1-yl)-N-(2-methyl-2H-indazol-5-yl)-3-phenylpropanamide] | 6.6
12 | 1170 ± 576 | 4710 ± 2120 | 2.04 ± 1.08 | 19.1 |  |  |  | O=C(Nc1ccc2nn(C(F)F)cc2c1)C(Cc1ccccc1)N1CC(=O)N(c2cc(Cl)ccc2-n2cc(Cl)nn2)CC1=O (stereo not drawn) [Example 45, 2-(4-(5-Chloro-2-(4-chloro-1H-1,2,3-triazol-1-yl)phenyl)-2,5-dioxopiperazin-1-yl)-N-(2-(difluoromethyl)-2H-indazol-5-yl)-3-phenylpropanamide] | 11.3
13 |  |  |  | 34.8 |  |  |  | CC(=O)c1ccc(NC(=O)C(Cc2ccccc2)N2CC(=O)N(c3cc(Cl)ccc3-n3cnnn3)CC2=O)cc1 (stereo not drawn) [Example 17] | 11.2
14 | 2220 ± 552 | 3940 ± 984 | 0.735 ± 0.0242 |  |  |  |  | Cn1cc2cc(NC(=O)C(CC3CCCCO3)N3CC(=O)N(c4cc(Cl)ccc4-n4cc(Cl)nn4)CC3=O)ccc2n1 (stereo not drawn) [Example 117, 2-(4-(5-Chloro-2-(4-chloro-1H-1,2,3-triazol-1-yl)phenyl)-2,5-dioxopiperazin-1-yl)-N-(2-methyl-2H-indazol-5-yl)-3-(tetrahydro-2H-pyran-2-yl)propanamide] | 6.3
15 |  |  |  | 14.9 |  |  |  | O=C1Cc2cc(NC(=O)C(Cc3ccccc3)N3CC(=O)N(c4cc(Cl)ccc4-n4cnnn4)CC3=O)ccc2N1 (stereo not drawn) [Example 13, 2-(4-(5-Chloro-2-(1H-tetrazol-1-yl)phenyl)-2,5-dioxopiperazin-1-yl)-N-(2-oxoindolin-5-yl)-3-phenylpropanamide] | 4.0
